The text below walks through data of patent US20150025120A1, “PYRAZOLE-ALCOHOL COMPOUNDS AND PHARMACEUTICAL USE THEREOF” (JAPAN TOBACCO INC., priority 2013, published 2015).

The target of series [1] is T1, hERG current (hERG-transfected HEK293 cells) (Homo sapiens, UniProt Q12809).
T1 construct: host or cells: HEK293
The series is described as follows: hERG whole cell patch clamp test. The format is cell-based. The method, then: Using human ether-a-go-go related gene (hERG)-transfected HEK293 cells (Cytomyx Limited), an influence on hERG current was examined according to the whole cell patch clamp technique. The hERG-transfected HEK293 cells were passaged using a CO2 incubator (BNA-111, TABAI ESPEC CORP.) under the set conditions of 37° C., 5% CO2, saturated humidity. Culture containers used were Collagen Type I Coated 75 cm^2 flask (4123-010, AGC TECHNO GLASS CO., Ltd.) and Collagen Type I Coated 35 mm culture dish (4000-010, AGC TECHNO GLASS CO., Ltd.). The culture medium used was E-MEM (Eagle Minimum Essential Medium (Earle's Salts, Nikken biomedical laboratory) added with 10% FCS (Fetal calf serum, BioWest, L.L.C.) and 1% MEM Non-Essential Amino Acids Solution (NEAA, Invitrogen Corporation). Geneticin for the selection of hERG gene expressing cells was added thereto to a concentration of 400 μg/mL. As the cells for the measurement, 3×10^4 hERG-transfected HEK293 cells were plated on a 35 mm culture dish 4 to 7 days before measurement of the hERG current. The culture dish produced for the measurement contained the above-mentioned culture medium without geneticin (Invitrogen Corporation).
The highest evaluation concentration of each compound was determined from the highest concentration at which precipitation was not found in the standard extracellular fluid (NaCl: 140 mmol/L, KCl: 2.5 mmol/L, MgCl2: 2 mmol/L, CaCl2: 2 mmol/L, HEPES: 10 mmol/L, glucose: 10 mmol/L (adjusted to pH 7.4 with Tris-base)). As the application method, each solution to be applied was ejected from a Y-tube having a tip diameter of about 0.25 mm, which was adjacent (about 2 mm) to the cells, and applied to the cells. The ejection rate was about 0.4 mL/min.
The experiment was performed at room temperature under a phase contrast microscope. The 35 mm culture dish plated with the cells was set on a measurement apparatus, and the standard extracellular fluid was continuously applied to the cells from the Y-tube. A glass electrode for the measurement was filled with an intracellular fluid (Potassium Gluconate: 130 mmol/L, KCl: 20 mmol/L, MgCl2: 1 mmol/L, ATP-Mg: 5 mmol/L, EGTA: 3.5 mmol/L, HEPES: 10 mmol/L (adjusted to pH 7.2 with Tris-base)). A conventional whole cell patch clamp method was applied to the cells, and the maintenance electric potential was set to −80 mV. Under a fixed electric potential, the whole cell current was amplified by an amplifier for patch clamp (AXOPATCH-200B, Axon Instruments, Inc.), and the data was loaded into a computer (IMC-P642400, Intermedical Co., Ltd.) using a data acquisition analysis software (pCLAMP 9.2, Axon Instruments, Inc.).
The measurement of the hERG current was performed in the following two steps. In both cases, the hERG current was initiated by giving a command potential (maintenance electric potential −80 mV, prepulse+20 mV, 1.5 sec, test-pulse −50 mV, 1.5 sec).
Step (1): The above-mentioned command potential was given at 0.1 Hz for 2 min.
Step (2): The above-mentioned command potential was subjected to P/3 subtraction of pCLAMP 9.2 to remove leak current. This was repeated three times and an average thereof was taken as hERG current.
Subsequent to step (1), Step (2) was performed (about 3 min), and the maximum tail current obtained by applying a test-pulse to the hERG current obtained by the method of step (2) was taken as hERG current value. Hereafter, the operations of (1) and (2) were alternately repeated until completion of the experiment and the hERG current value was measured.
Stable hERG current value was recorded three times (about 10 min), and the standard extracellular fluid was instantaneously exchanged with each application fluid. The hERG current value was measured three times (about 10 min) in the same manner during perfusion of the application fluid, and the current value obtained by the 3rd measurement was taken as hERG current value after perfusion of the application fluid. […]

For a further series, the system named is tissue PDH activity. Nature of the series: Ex vivo PDH activation assay (liver and epididymal adipose tissue after oral administration). The series is classed as in vivo, Sprague-Dawley rats. The conditions noted are these: 3 mg/kg, rat, mean ± standard deviation. The method, then:
The action of test compound on tissue PDH activity was evaluated. NADH production was detected via p-iodonitrotetrazolium violet (INT)-coupled system to measure PDH activity.
Normal male Sprague-Dawley rats were randomly allocated to the vehicle group and the test compound groups. The vehicle (0.5% aqueous methylcellulose solution, 5 mL/kg) or the test compound was orally administered to the rats. At 5 or 20 hr after administration, the rats were anesthetized with an intraperitoneal injection of sodium pentobarbital (60 mg/kg), and liver slices and epididymal adipose tissues were collected.
To the liver slices were rapidly added 9 volumes of ice-cold homogenization buffer (0.25 mol/L sucrose, 5 mmol/L tris(hydroxymethyl)aminomethane hydrochloride (pH 7.5), 2 mmol/L EDTA), and the mixtures were homogenized using a Polytron homogenizer. The homogenates were centrifuged at 600×g, 4° C. for 10 min to obtain the supernatant. The supernatants (1 mL) were centrifuged at 16,000×g, 4° C. for 10 min to collect the precipitates. The precipitates were washed by resuspension in the homogenization buffer (1 mL) and centrifuged in the same manner. The precipitates were frozen with liquid nitrogen and stored at −80° C. as the liver mitochondrial fraction.
To the adipose tissues were rapidly added 3 volumes of an ice-cold homogenization buffer, and the mixtures were homogenized using a Polytron homogenizer. The homogenates were centrifuged at 600×g, 4° C. for 10 min to obtain the supernatant. The supernatants were centrifuged at 16,000×g, 4° C. for 10 min to collect the precipitates. The precipitates were washed by resuspension in the homogenization buffer (1 mL) and centrifuged in the same manner. The precipitates were frozen with liquid nitrogen and stored at −80° C. as the adipose tissue mitochondrial fraction.
The mitochondrial fractions were thawed and suspended with the sample buffer (0.25 mol/L sucrose, 20 mmol/L tris(hydroxymethyl)aminomethane hydrochloride (pH 7.5), 50 mmol/L potassium chloride, and 1 mL/L 4-(1,1,3,3-tetramethylbutyl)phenyl-polyethylene glycol (Triton X-100)). Active PDH activity (PDHa activity) and total PDH activity (PDHt activity) were measured to evaluate the PDH activity. For the measurement of the PDHt activity, equal amounts of the mitochondrial suspension and the activation buffer (0.25 mol/L sucrose, 20 mmol/L tris(hydroxymethyl)aminomethane hydrochloride (pH 7.5), 50 mmol/L potassium chloride, 1 mL/L Triton X-100, 4 mmol/L calcium chloride, 40 mmol/L magnesium chloride, 10 mmol/L sodium dichloroacetate) were mixed, and the mixtures were incubated at 37° C. for 10 min. Forty microliters of the mitochondrial suspensions diluted with a sample buffer were added to a 96-well microplate for activity measurement and blank measurement. Then 180 μL of the reaction mixture (0.056 mmol/L potassium phosphate buffer (pH 7.5), 5.6 mmol/L DL-carnitine, 2.8 mmol/L NAD, 0.22 mmol/L thiamin pyrophosphate, 0.11 mmol/L Coenzyme A, 1.1 mL/L Triton X-100, 1.1 mmol/L magnesium chloride, 1.1 g/L bovine serum albumin, 0.67 mmol/L INT, 7.2 μmol/L phenazine methosulfate, 28 mmol/L sodium oxamate) was added to each well, and then 20 μL of 50 mmol/L sodium pyruvate for activity measurement or water for blank measurement were added. The mixtures were incubated at room temperature under shading. The absorbances at 500-750 nm, which were attributable to reduction of INT, the final electron acceptor, were measured using a microplate reader over time and the changes in the absorbance were calculated. The PDH activity was calculated by subtraction of the change in absorbance of the blank well from that of the activity measurement well. The percentage of the PDHa activity to the PDHt activity was calculated and taken as an index of the PDH activation.

Setting [2] is: adipose tissue, 5 hr after oral administration.
Setting [3] is: adipose tissue, 20 hr after oral administration.
[4] abbreviates: liver, 5 hr after oral administration.
Setting [5] is: liver, 20 hr after oral administration.

Structures are written as SMILES.

T1 sequence (Q12809 whole entry): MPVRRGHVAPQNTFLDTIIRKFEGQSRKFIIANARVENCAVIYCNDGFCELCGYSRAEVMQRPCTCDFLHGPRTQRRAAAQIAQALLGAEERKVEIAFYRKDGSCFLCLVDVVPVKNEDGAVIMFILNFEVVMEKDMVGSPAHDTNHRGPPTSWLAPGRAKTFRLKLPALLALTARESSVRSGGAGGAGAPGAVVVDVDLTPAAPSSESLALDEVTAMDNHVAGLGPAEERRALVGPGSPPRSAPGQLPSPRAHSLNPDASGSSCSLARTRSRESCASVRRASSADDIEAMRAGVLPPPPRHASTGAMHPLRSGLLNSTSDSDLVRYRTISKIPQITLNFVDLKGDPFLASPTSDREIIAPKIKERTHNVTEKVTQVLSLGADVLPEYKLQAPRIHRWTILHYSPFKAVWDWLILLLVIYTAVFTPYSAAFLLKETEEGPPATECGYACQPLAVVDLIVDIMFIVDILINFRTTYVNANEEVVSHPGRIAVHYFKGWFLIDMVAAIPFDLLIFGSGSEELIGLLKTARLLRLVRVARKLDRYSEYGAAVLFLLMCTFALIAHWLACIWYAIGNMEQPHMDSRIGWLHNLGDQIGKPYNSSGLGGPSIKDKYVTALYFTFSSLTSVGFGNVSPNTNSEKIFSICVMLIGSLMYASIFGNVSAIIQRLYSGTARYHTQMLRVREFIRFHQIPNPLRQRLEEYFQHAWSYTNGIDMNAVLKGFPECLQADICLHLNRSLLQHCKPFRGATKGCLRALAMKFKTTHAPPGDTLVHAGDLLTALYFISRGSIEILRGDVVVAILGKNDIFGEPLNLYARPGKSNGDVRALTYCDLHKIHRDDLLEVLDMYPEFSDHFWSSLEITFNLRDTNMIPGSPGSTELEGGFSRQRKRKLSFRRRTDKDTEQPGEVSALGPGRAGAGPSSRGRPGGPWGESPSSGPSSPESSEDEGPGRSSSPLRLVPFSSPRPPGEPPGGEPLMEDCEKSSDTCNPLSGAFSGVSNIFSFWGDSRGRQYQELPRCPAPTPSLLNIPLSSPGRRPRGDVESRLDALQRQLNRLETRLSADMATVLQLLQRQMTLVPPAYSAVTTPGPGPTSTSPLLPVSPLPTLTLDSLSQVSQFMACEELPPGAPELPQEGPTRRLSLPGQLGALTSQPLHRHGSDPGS

As to `CC(C)(C(N)=O)n1cc(-c2cc(F)cc3c2-c2ccccc2[C@]3(O)C(F)(F)F)cn1` [compound (D), 2-{4-[(9R)-2-Fluoro-9-hydroxy-9-(trifluoromethyl)-9H-fluoren-4-yl]-1H-pyrazol-1-yl}-2-methylpropanamide], the “hERG inhibition rate (%)” value in series [1] (concentration 3 μmol/L) is 9.4%; in series [1] (concentration 30 μmol/L), 67.5%. Also, the “PDHa activity (% PDHt activity)” value in the series on tissue PDH activity (setting [2]) worked out at 43 ± 7 % PDHt activity; in the series on tissue PDH activity (setting [3]), 24 ± 3 % PDHt activity; in the series on tissue PDH activity (setting [4]), 41 ± 15 % PDHt activity; in the series on tissue PDH activity (setting [5]) it was 20 ± 1 % PDHt activity.

Regarding `CC(C)(O)COc1cc(-c2cnn(CCO)c2)c2c(c1)[C@@](O)(C(F)(F)F)c1ccccc1-2` [compound (C), (9R)-4-[1-(2-Hydroxyethyl)-1H-pyrazol-4-yl]-2-(2-hydroxy-2-methylpropoxy)-9-(trifluoromethyl)-9H-fluoren-9-ol], the “hERG inhibition rate (%)” value in series [1] (concentration 3 μmol/L) was found to be 11.5%; in series [1] (concentration 30 μmol/L), 69.0%. Moreover, the “PDHa activity (% PDHt activity)” value with tissue PDH activity (setting [2]) was determined as 53 ± 4 % PDHt activity; with tissue PDH activity (setting [3]), 28 ± 7 % PDHt activity; in the series on tissue PDH activity (setting [4]), 44 ± 5 % PDHt activity; with tissue PDH activity (setting [5]), 13 ± 3 % PDHt activity.
